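Compound exposure: 48 hours, 5 concentrations, 96-well plates. At the GI50, growth is halved.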 The source made the active and inactive calls. Rule as the data show it: active = GI50 up to about 1.1 µM and inactive = higher.
Experiments:
Assay in all cases: NCI tumour cell line growth inhibition, 48 h
[1] = tested on: 786-0
[2] = tested on: A498
[3] = tested on: A549
[4] = tested on: ACHN
[5] = tested on: BT-549
[6] = tested on: CAKI-1
[7] = tested on: CCRF-CEM
[8] = tested on: COLO 205
[9] = tested on: DU-145
[10] = tested on: EKVX
[11] = tested on: HCC 2998
[12] = tested on: HCT-116
[13] = tested on: HCT-15
[14] = tested on: HL-60
[15] = tested on: HOP-62
[16] = tested on: HOP-92
[17] = tested on: HT-29
[18] = tested on: Hs-578T
[19] = tested on: IGROV-1
[20] = tested on: K562
[21] = tested on: KM12
[22] = tested on: LOX IMVI
[23] = tested on: M14
[24] = tested on: MCF7
[25] = tested on: MDA-MB-231
[26] = tested on: MDA-MB-435
[27] = tested on: MDA-N
[28] = tested on: MOLT-4
[29] = tested on: Malme-3M
[30] = tested on: NCI-H226
[31] = tested on: NCI-H23
[32] = tested on: NCI-H460
[33] = tested on: NCI-H522
[34] = tested on: OVCAR-3
[35] = tested on: OVCAR-4
[36] = tested on: OVCAR-5
[37] = tested on: OVCAR-8
[38] = tested on: PC-3
[39] = tested on: RPMI-8226
[40] = tested on: RXF 393
[41] = tested on: SF-268
[42] = tested on: SF-295
[43] = tested on: SF-539
[44] = tested on: SK-MEL-28
[45] = tested on: SK-MEL-2
[46] = tested on: SK-MEL-5
[47] = tested on: SK-OV-3
[48] = tested on: SN12C
[49] = tested on: SNB-19
[50] = tested on: SNB-75
[51] = tested on: SR
[52] = tested on: SW-620
[53] = tested on: T47D
[54] = tested on: TK-10
[55] = tested on: U-251
[56] = tested on: UACC-257
[57] = tested on: UACC-62
[58] = tested on: NCI/ADR-RES
[59] = tested on: UO-31

In the case of `C/C(=C1/N=C(c2ccccc2)OC1=O)c1cccs1`, the GI50 [1] is reported as 76 µM (inactive), the GI50 [2] is reported as > 100 µM (inactive) and the GI50 [3] is reported as 64.7 µM (inactive). For the same compound, the GI50 [4] was > 100 µM (inactive), the GI50 [5] was > 100 µM (inactive) and the GI50 [6] was > 100 µM (inactive). The GI50 [7] was > 100 µM (inactive), the GI50 [8] was > 100 µM (inactive) and the GI50 [9] was > 100 µM (inactive). For the same compound, the GI50 [10] was > 100 µM (inactive), the GI50 [11] was > 100 µM (inactive) and the GI50 [12] was > 100 µM (inactive). The GI50 [13] was greater than 100 µM, the GI50 [14] was > 100 µM (inactive) and the GI50 [15] was 55 µM (inactive). The GI50 [16] was > 100 µM (inactive), the GI50 [17] was > 100 µM (inactive) and the GI50 [18] was 73.5 µM (inactive). The GI50 [19] was 63.7 µM (inactive), the GI50 [20] was > 100 µM (inactive) and the GI50 [21] was > 100 µM (inactive). The GI50 [22] was > 100 µM (inactive), the GI50 [23] was > 100 µM (inactive) and the GI50 [24] was > 100 µM (inactive). The GI50 [25] was 66.7 µM (inactive), the GI50 [26] was > 100 µM (inactive) and the GI50 [27] was > 100 µM (inactive). For the same compound, the GI50 [28] was > 100 µM (inactive), the GI50 [29] was > 100 µM (inactive) and the GI50 [30] was > 100 µM (inactive). The GI50 [31] was > 100 µM (inactive), the GI50 [32] was > 100 µM (inactive) and the GI50 [33] was 59.8 µM (inactive). The GI50 [34] was > 100 µM (inactive), the GI50 [35] was 37.3 µM (inactive) and the GI50 [36] was > 100 µM (inactive). For the same compound, the GI50 [37] was 68.9 µM (inactive), the GI50 [38] was > 100 µM (inactive) and the GI50 [39] was > 100 µM (inactive). For the same compound, the GI50 [40] was > 100 µM (inactive), the GI50 [41] was > 100 µM (inactive) and the GI50 [42] was > 100 µM (inactive). The GI50 [43] was > 100 µM (inactive), the GI50 [44] was > 100 µM (inactive) and the GI50 [45] was > 100 µM (inactive). For the same compound, the GI50 [46] was > 100 µM (inactive), the GI50 [47] was > 100 µM (inactive) and the GI50 [48] was > 100 µM (inactive). The GI50 [49] was > 100 µM (inactive), the GI50 [50] was 76.4 µM (inactive) and the GI50 [51] was > 100 µM (inactive). For the same compound, the GI50 [52] was > 100 µM (inactive), the GI50 [53] was > 100 µM (inactive) and the GI50 [54] was > 100 µM (inactive). The GI50 [55] was > 100 µM (inactive), the GI50 [56] was > 100 µM (inactive) and the GI50 [57] was > 100 µM (inactive).

For `COCn1cnc2c(=O)nc(SC)n(-c3ccccc3)c21`, the GI50 [1] was > 100 µM (inactive), the GI50 [2] was > 100 µM (inactive) and the GI50 [3] was > 100 µM (inactive). For the same compound, the GI50 [4] was > 100 µM (inactive), the GI50 [5] was > 100 µM (inactive) and the GI50 [6] was > 100 µM (inactive). The GI50 [7] was > 100 µM (inactive), the GI50 [8] was > 100 µM (inactive) and the GI50 [9] was > 100 µM (inactive). The GI50 [10] was > 100 µM (inactive), the GI50 [11] was > 100 µM (inactive) and the GI50 [12] was > 100 µM (inactive). The GI50 [13] was greater than 100 µM, the GI50 [14] was > 100 µM (inactive) and the GI50 [15] was > 100 µM (inactive). For the same compound, the GI50 [16] was > 100 µM (inactive), the GI50 [17] was > 100 µM (inactive) and the GI50 [18] was > 100 µM (inactive). For the same compound, the GI50 [19] was > 100 µM (inactive), the GI50 [20] was > 100 µM (inactive) and the GI50 [21] was > 100 µM (inactive). For the same compound, the GI50 [22] was > 100 µM (inactive), the GI50 [23] was > 100 µM (inactive) and the GI50 [24] was > 100 µM (inactive). For the same compound, the GI50 [25] was > 100 µM (inactive), the GI50 [26] was > 100 µM (inactive) and the GI50 [27] was > 100 µM (inactive). For the same compound, the GI50 [28] was > 100 µM (inactive), the GI50 [29] was > 100 µM (inactive) and the GI50 [30] was > 100 µM (inactive). The GI50 [31] was > 100 µM (inactive), the GI50 [33] was > 100 µM (inactive) and the GI50 [58] was > 100 µM (inactive). The GI50 [34] was > 100 µM (inactive), the GI50 [35] was > 100 µM (inactive) and the GI50 [36] was > 100 µM (inactive). The GI50 [37] was > 100 µM (inactive), the GI50 [39] was > 100 µM (inactive) and the GI50 [40] was > 100 µM (inactive). For the same compound, the GI50 [41] was > 100 µM (inactive), the GI50 [42] was > 100 µM (inactive) and the GI50 [43] was > 100 µM (inactive). For the same compound, the GI50 [45] was > 100 µM (inactive), the GI50 [46] was > 100 µM (inactive) and the GI50 [47] was > 100 µM (inactive). The GI50 [48] was > 100 µM (inactive), the GI50 [49] was > 100 µM (inactive) and the GI50 [50] was > 100 µM (inactive). The GI50 [52] was > 100 µM (inactive), the GI50 [53] was > 100 µM (inactive) and the GI50 [54] was > 100 µM (inactive). The GI50 [56] was > 100 µM (inactive), the GI50 [57] was > 100 µM (inactive) and the GI50 [59] was > 100 µM (inactive).

From ChEMBL document CHEMBL1201862, “PubChem BioAssay data set” (2004)
